Test results: PMC12631437, “Evaluation of the Activity of 4‑Quinolones against Multi-Life Stages of Plasmodium spp” (ACS Omega, 2025)
Where two headings read alike, the source gives them in different places.

What was measured:
[1] = system: P. berghei hepatic stages; assay: Hepatic stage bioluminescence assay, Huh-7 cells infected with luciferase-expressing sporozoites; format: cell-based, Plasmodium berghei; conditions: Plasmodium berghei; Huh-7 cells, 48 h after sporozoite addition; read-out: IC50 (μM) Pb liver stages
Description: (§1) Huh-7 cells were cultured in RPMI 1640 medium (Sigma) supplemented with 10% v/v fetal bovine serum (FBS), 1% v/v penicillin/streptomycin, 1% v/v glutamine, 1% v/v nonessential amino acids, and 10 mM HEPES, pH 7. For compound dilution, a medium containing 1:1000 gentamicin (G) and 1:300 fungizone (F) was used. Cells were seeded at 1 × 10^4 cells/well in 96-well plates and incubated at 37 °C with 5% CO2. After 24 h, compounds were diluted in RPMI+F+G, and after removal of the culture medium, added to the cells in triplicate. DMSO and atovaquone were used as negative and positive controls, respectively. Following incubation for 1 h at 37 °C, 5% CO2, the cells were infected with luciferase-expressing P. berghei sporozoites (4,000 parasites per well) freshly extracted from the salivary glands of infected mosquitoes reared at the GIMM insectarium. The viability of Huh-7 cells exposed to the compounds was assessed 46 h later by the AlamarBlue assay (Invitrogen, UK) measurement, and parasite burden was measured 48 h after sporozoite addition using a bioluminescence assay (Biotium). IC50 values were calculated using GraphPad Prism through nonlinear regression analysis of normalized dose–response curves.

[2] = system: Plasmodium falciparum 3D7 sensitive strain; assay: SYBR Green growth assay, asexual blood stages, 3D7 sensitive strain; format: cell-based
Description: Parasite strains SB1-A6, 7G8, V1/S, and HB3 were acquired from BEI-MR4, while the ATQ R1 strain, carrying a V259L gene mutation, was generated in-house. […] Parasitemia was monitored using Giemsa-stained blood smears.
Bioassays were conducted with synchronized ring-stage parasites using sorbitol synchronization. Antimalarial compounds were evaluated in 96-well plates, and parasite growth was assessed using a SYBR Green-based fluorescence assay The assays were conducted when the parasite quantity reached at least 70% of the ring stage. Compounds were initially added at specific concentrations in the first wells, followed by serial dilution (1:2) ranging from 20 μM to 0.009 μM. Subsequently, a solution containing parasites in RPMI medium at a hematocrit of 2% was added to each well, and the parasites were then incubated for 72 h.
The IC50 values were determined using concentration–response curves generated in GraphPad 8 software. Additionally, the resistance index was calculated by comparing IC50 values obtained for the sensitive 3D7 strain with those of the resistant strains.

Huh-7 cells = assay: Alamar Blue cell confluency (cytotoxicity) in Huh-7 cells; format: cell-based
Description: as §1, with “For” for “Huh-7 cells were cultured in RPMI 1640 medium (Sigma) supplemented with 10% v/v fetal bovine serum (FBS), 1% v/v penicillin/streptomycin, 1% v/v glutamine, 1% v/v nonessential amino acids, and 10 mM HEPES, pH 7. For”, “DMSO and atovaquone were used as negative and positive controls, respectively.” left out
On the first day of the assay, the compounds were diluted at 10 and 1 μM in cRPMI medium supplemented with fungizone. and gentamicin. The culture medium of Huh-7 cells was removed and replaced with compound dilutions in triplicate. As a control, a DMSO dilution mimicking the highest compound concentration used was included. The cells were incubated for 1 h at 37 °C in a 5% CO2 atmosphere.
On the second day of the assay, compound toxicity was assessed by measuring cell confluency using the Alamar Blue/CellTiter Blue reagent. First, reagent aliquots stored at −20 °C were thawed and diluted at a 1:20 ratio in cRPMI. The culture medium was removed and replaced with 80 μL of the solution per well, followed by incubation at 37 °C and 5% CO2 for 1 h and 30 min. Fluorescence was measured using a plate reader with the Tecan i-Control software.

[3] = system: P. vivax oocysts and sporozoites in Anopheles darlingi; assay: Direct membrane feeding assay (DMFA), P. vivax gametocytes, A. darlingi mosquitoes; format: in vivo, Plasmodium vivax; conditions: for reduction of the density of sporozoites per mosquito: 14 days after feeding; for reduction in the oocyst density per mosquito midgut: day 7
Description: Participants were recruited from patients diagnosed with P. vivax malaria via Giemsa-stained blood smears at CEPEM in Porto Velho, Rondônia, Brazil (#28176720.9.0000.0011). Criteria included: P. vivax parasitemia >2000 parasites/μL, age 18–85, no severe malaria, no concomitant diseases, nonpregnant, and consent to study procedures. Approximately 10 mL of venous blood was collected into heparin-coated vials, maintained at 37 °C, and transported to PIVEM for DMFA. Malaria treatment followed Brazilian Ministry of Health guidelines and was unaffected by study participation.
Anopheles darlingi mosquitoes are maintained in the PIVEM insectary at Fiocruz Rondônia since 2018. Mosquitoes were raised at a temperature of 26 °C ± 1 °C and a relative humidity of 70 ± 10%, being fed a 15% honey solution.
Before the DMFA, female mosquitoes were starved of sucrose overnight. Six P. vivax isolates were used, and 40–100 mosquitoes per group were fed P. vivax-infected blood for 30 min using a Hemotek membrane feeder at 37 °C. Unfed mosquitoes were removed, and engorged ones were maintained for sporogony, receiving a 15% honey solution refreshed every 2 days. Midguts were dissected on day 7 and salivary glands on day 14 postblood feeding, to assess midgut oocyst load and salivary gland sporozoite load, respectively.
Mosquitoes were anesthetized on ice, immersed in 70% ethanol, and dissected in PBS. Midguts were stained with 0.2% mercurochrome and examined microscopically for oocysts. Salivary glands were pooled (5 mosquitoes per sample), and homogenized in 15 μL RPMI, and sporozoites were counted using a Neubauer chamber.

[4] = Plasmodium falciparum, 3D7, 72 h, asexual blood stages, 3D7 sensitive strain, 72 h, read-out: IC50
[5] = asexual blood stages, 3D7 sensitive strain, 72 h, read-out: IC50

Row | Structure (SMILES) | IC50 [1] | IC50 ([2]; Plasmodium falciparum, 3D7, 3D7, strain assigned by order of panels, read-out: IC50 (Figure S1)) | IC50 [2, 4] | IC50 [2, 5] | Confluency % (Huh-7 cells; 1 μM) | Confluency % (Huh-7 cells; 10 μM) | reduction of infection prevalence ([3]; 2 μM) | reduction of the density of sporozoites per mosquito ([3]; 2 μM) | reduction in the oocyst density per mosquito midgut ([3]; 2 μM) | reduction of infection prevalence ([3]; 10 μM) | reduction in the oocyst density per mosquito midgut ([3]; 10 μM) | reduction of the density of sporozoites per mosquito ([3]; 10 μM)
1 | CCCCCCCCCCCc1cc(=O)c2ccccc2[nH]1 [compound 1, 2-Undecilquinolin-4(1H)-one] | 0.25 ± 0.01 µM | 270 nM | 210 ± 40 nM | 200 ± 100 nM | 97 ± 6% | 79 ± 2% | 31% | 39% | 74% | 71% | 95% | 
2 | CCCCCCOc1ccc(-c2cc(=O)c3ccccc3[nH]2)cc1 [compound 6, 2-(4-(Hexyloxy)-phenyl)-quinolin-4(1H)-one] | 0.38 ± 0.04 µM |  | 560 ± 70 nM | 500 nM | 105 ± 3% | 102 ± 11% |  | 31% | 29% |  | 53% | 10%
